# Measured values taken from ChEMBL document CHEMBL1201862, “PubChem BioAssay data set” (2004).
# Calls of active or inactive are those of the source.
# What was measured:
# [1] = biological target: T1, Polyadenylate-binding protein 1 (Homo sapiens, UniProt P11940); experiment: MLLE binding blockers, Cy5 peptide tracer – biochemical, fluorescence polarization, Cy5-PAM2 peptide, secondary, miRNA deadenylation inhibitor project, dose response (AID 602260); type: functional; conditions: read-out: IC50_Mean
# T1 sequence (P11940 whole entry): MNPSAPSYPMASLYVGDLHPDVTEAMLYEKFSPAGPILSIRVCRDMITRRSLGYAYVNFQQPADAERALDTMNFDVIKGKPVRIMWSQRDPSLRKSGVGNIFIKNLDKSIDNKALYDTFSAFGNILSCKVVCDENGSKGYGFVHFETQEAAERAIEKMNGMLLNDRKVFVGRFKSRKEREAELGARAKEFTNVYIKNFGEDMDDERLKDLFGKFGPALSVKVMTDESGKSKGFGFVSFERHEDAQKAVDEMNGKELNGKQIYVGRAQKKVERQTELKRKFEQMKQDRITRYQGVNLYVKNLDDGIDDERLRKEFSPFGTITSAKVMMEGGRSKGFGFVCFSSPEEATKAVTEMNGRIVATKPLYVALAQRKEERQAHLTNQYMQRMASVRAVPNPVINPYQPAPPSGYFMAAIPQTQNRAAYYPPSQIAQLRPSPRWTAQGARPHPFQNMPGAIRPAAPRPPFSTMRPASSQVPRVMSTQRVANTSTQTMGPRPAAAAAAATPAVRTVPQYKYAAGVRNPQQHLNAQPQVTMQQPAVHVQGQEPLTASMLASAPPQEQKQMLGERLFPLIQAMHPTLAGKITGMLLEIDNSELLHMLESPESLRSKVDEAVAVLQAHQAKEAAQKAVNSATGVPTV
# [2] = biological target: T2, Histone-lysine N-methyltransferase NSD2 (Homo sapiens, UniProt O96028); type: biochemical
# T2 sequence (O96028 whole entry): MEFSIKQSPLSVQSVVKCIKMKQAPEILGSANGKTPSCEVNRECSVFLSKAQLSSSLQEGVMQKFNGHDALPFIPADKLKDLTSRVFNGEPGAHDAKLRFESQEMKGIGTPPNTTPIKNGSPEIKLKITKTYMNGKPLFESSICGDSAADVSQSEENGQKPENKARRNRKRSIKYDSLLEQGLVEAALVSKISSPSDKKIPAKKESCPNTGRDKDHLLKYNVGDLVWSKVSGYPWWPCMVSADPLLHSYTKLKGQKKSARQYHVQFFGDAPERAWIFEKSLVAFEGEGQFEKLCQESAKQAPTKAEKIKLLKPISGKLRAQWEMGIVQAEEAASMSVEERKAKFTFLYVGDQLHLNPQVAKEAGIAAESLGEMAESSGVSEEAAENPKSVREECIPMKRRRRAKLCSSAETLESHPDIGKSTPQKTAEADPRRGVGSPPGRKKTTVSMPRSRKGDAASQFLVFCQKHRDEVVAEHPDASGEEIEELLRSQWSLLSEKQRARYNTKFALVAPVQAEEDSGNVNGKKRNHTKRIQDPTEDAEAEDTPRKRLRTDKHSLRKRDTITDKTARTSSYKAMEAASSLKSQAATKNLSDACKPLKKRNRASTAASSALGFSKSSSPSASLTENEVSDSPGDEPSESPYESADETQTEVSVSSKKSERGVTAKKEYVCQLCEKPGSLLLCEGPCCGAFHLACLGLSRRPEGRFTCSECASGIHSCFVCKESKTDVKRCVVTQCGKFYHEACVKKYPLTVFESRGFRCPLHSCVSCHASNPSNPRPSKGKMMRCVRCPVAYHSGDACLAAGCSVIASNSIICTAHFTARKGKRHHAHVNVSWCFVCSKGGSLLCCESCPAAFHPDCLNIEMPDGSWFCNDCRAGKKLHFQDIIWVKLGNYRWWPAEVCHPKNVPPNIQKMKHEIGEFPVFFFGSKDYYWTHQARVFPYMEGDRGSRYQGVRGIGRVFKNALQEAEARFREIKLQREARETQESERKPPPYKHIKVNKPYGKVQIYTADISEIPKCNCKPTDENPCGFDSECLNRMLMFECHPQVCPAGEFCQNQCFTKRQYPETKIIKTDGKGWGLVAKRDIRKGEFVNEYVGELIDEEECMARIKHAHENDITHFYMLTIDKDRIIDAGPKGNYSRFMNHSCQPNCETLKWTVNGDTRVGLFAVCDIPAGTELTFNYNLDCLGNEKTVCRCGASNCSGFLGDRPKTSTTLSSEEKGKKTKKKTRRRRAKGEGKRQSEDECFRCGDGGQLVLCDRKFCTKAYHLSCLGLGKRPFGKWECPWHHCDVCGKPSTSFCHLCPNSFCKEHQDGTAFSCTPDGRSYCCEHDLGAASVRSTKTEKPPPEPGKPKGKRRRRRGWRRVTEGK
# [3] = biological target: T1, Polyadenylate-binding protein 1; experiment: MLLE domain peptide-binding blockers, IC50 – biochemical, fluorescence polarization, FITC-PAM2 peptide, dose response (AID 602259); type: functional; conditions: read-out: IC50_Mean
# [4] = biological target: Tyrosyl-DNA phosphodiesterase 2 (Homo sapiens, UniProt O95551); experiment: potency against TDP2 phosphodiesterase activity – biochemical, epi absorbance, IC50, dose response (AID 743297)
# Chain of Tyrosyl-DNA phosphodiesterase 2 (O95551 whole entry): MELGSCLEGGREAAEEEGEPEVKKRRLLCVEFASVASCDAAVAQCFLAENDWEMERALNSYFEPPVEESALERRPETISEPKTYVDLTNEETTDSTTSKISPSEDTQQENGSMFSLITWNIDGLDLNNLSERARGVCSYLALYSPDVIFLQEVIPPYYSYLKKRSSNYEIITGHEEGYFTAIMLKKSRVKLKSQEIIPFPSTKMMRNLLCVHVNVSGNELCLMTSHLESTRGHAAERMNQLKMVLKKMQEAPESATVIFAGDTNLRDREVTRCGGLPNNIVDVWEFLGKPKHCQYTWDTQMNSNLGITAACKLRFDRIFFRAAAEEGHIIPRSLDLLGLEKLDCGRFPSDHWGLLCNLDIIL
# Hexokinase HKDC1 = biological target: T3, Hexokinase HKDC1 (Homo sapiens, UniProt Q2TB90); experiment: inhibition of HKDC1 glucose phosphorylation – biochemical, W721R variant, dose response (AID 504729); type: functional
# T3 sequence (Q2TB90 whole entry): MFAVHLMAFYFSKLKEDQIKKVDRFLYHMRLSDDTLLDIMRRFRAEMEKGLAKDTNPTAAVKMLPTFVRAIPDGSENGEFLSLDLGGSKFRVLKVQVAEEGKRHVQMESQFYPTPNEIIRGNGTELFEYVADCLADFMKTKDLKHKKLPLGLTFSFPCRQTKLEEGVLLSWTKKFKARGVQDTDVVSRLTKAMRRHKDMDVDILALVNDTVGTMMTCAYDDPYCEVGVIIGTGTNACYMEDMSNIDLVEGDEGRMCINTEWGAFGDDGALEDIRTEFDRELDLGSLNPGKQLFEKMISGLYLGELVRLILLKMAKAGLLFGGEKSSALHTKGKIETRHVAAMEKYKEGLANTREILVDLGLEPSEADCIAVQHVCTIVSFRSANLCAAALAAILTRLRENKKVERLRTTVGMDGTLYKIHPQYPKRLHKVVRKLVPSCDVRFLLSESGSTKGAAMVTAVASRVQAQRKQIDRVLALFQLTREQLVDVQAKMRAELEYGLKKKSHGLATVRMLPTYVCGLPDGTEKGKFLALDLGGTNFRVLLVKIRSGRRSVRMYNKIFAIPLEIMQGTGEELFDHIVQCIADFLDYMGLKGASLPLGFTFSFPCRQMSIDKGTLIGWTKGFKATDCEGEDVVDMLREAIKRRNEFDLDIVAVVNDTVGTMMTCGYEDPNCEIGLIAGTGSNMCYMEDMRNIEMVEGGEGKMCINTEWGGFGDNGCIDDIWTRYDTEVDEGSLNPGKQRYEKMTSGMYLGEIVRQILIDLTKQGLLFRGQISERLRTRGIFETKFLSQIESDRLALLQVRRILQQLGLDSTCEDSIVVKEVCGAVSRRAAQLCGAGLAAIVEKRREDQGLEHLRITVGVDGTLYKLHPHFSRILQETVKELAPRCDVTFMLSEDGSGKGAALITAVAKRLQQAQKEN
# [5] = general cell-killing toxicity readout – plate reader, dry powder samples, cytotoxicity control for PAX8 inhibitor project, dose response (AID 743021); type: functional, cell-based
# [6] = biological target: Photoreceptor-specific nuclear receptor (Homo sapiens, UniProt Q9Y5X4); type: functional, cell-based;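 note: CHO-S cells with Gal4-NCOR and VP16-NR2E3 two-hybrid luciferase reporter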
# Chain of Photoreceptor-specific nuclear receptor (Q9Y5X4 whole entry, the tested form may be a part): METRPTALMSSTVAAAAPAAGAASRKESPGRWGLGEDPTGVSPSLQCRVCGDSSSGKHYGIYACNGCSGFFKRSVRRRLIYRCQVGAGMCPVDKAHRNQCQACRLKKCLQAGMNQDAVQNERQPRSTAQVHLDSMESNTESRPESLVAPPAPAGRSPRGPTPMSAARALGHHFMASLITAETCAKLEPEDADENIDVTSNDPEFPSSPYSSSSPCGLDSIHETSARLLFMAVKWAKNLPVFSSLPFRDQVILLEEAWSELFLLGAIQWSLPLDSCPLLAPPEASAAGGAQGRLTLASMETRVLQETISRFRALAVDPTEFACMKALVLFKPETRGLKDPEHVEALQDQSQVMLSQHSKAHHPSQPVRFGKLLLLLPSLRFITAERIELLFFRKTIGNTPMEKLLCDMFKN
# Paired box protein Pax-8 = Paired box protein Pax-8 (Homo sapiens, UniProt Q06710); experiment: PAX8 transcriptional activity inhibition in RMG-I – RMG-I cells, luciferase, cherry-pick, dose response (AID 687027); type: functional, cell-based;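 note: luciferase reporter driven by Pax8 target thyroperoxidase promoter measured by SteadyGlo luminescence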
# Chain of Paired box protein Pax-8 (Q06710 whole entry): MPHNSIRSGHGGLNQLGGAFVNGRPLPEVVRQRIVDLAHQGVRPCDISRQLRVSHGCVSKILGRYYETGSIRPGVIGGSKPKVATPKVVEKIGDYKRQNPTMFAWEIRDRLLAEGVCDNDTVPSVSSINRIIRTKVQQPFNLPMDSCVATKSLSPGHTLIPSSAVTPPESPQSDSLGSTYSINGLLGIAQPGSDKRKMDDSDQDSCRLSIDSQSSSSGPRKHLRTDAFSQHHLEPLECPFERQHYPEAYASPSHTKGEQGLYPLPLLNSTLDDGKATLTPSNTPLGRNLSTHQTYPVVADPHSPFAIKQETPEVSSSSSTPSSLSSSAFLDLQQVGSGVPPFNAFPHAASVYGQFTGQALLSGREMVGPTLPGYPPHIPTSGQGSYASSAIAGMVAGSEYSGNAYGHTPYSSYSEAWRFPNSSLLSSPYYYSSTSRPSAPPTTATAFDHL
# Caspase-6 = biological target: T4, Caspase-6 (Homo sapiens, UniProt P55212); experiment: inhibition of CASP6 peptide cleavage – biochemical, VEID-R110 fluorescence, cherry-pick, dose response (AID 720632)
# T4 sequence (P55212 whole entry): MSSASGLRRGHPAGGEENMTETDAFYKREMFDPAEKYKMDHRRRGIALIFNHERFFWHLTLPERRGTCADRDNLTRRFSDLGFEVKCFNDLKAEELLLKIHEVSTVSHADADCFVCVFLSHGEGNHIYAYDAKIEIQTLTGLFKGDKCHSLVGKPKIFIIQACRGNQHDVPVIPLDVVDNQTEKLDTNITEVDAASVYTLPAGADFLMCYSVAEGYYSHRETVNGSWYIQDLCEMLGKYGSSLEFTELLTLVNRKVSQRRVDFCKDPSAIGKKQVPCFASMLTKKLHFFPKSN
# Caspase-7 = Caspase-7 (Homo sapiens, UniProt P55210); experiment: caspase-7 enzyme inhibition, selectivity check – biochemical, DEVD-R110 fluorescence, cherry-pick, selectivity assay for caspase-6 inhibitor project, dose response (AID 743295); type: functional
# Chain of Caspase-7 (P55210 24-198 limits assumed): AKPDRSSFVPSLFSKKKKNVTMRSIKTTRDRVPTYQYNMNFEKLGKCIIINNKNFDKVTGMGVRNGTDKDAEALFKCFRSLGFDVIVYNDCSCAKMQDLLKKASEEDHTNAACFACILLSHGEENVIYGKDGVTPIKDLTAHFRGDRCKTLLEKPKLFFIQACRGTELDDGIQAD
# Chain of Caspase-7 (P55210 207-303 limits assumed): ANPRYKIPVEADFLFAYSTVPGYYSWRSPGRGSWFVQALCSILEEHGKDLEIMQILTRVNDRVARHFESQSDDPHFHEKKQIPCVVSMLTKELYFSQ
# Albumin = Albumin (Bos taurus, UniProt P02769); experiment: Counterscreen for inhibitors of T-cell receptor (TCR)-CD3 interaction: Fluorescence-based biochemical high throughput dose response assay to identify inhibitors of T-cell receptor (TCR)-CD3 interaction using a TAMRA-labeled BSA probe.; type: functional
# Chain of Albumin (P02769 whole entry): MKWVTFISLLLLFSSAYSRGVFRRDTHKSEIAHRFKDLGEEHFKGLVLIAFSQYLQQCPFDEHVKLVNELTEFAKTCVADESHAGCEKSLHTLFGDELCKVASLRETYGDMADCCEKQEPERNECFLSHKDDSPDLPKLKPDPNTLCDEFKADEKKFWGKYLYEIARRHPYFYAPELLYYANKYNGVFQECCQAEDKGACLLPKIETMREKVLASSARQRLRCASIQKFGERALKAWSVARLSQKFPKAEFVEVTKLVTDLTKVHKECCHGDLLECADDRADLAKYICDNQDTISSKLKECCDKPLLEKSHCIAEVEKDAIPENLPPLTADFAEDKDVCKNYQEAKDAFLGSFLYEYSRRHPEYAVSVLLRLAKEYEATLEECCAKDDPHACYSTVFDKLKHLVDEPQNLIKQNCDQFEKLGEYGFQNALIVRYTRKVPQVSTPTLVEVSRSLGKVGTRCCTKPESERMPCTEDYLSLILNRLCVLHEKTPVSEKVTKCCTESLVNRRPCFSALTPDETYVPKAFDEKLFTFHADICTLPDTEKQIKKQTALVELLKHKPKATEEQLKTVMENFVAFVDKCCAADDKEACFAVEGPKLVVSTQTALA
# [7] = biological target: 1-phosphatidylinositol 4,5-bisphosphate phosphodiesterase beta-3 (Homo sapiens, UniProt Q01970); experiment: Fluorescence-based biochemical high throughput dose response assay to identify inhibitors of phospholipase C isozymes (PLC-B3).
# [8] = biological target: 1-phosphatidylinositol 4,5-bisphosphate phosphodiesterase gamma-1 (Homo sapiens, UniProt P19174); experiment: Counterscreen for inhibitors of phospholipase C isozymes (PLC-B3): Fluorescence-based biochemical high throughput dose response assay to identify inhibitors of phospholipase C isozymes (PLC-gamma1).
# Chain of 1-phosphatidylinositol 4,5-bisphosphate phosphodiesterase gamma-1 (P19174 whole entry): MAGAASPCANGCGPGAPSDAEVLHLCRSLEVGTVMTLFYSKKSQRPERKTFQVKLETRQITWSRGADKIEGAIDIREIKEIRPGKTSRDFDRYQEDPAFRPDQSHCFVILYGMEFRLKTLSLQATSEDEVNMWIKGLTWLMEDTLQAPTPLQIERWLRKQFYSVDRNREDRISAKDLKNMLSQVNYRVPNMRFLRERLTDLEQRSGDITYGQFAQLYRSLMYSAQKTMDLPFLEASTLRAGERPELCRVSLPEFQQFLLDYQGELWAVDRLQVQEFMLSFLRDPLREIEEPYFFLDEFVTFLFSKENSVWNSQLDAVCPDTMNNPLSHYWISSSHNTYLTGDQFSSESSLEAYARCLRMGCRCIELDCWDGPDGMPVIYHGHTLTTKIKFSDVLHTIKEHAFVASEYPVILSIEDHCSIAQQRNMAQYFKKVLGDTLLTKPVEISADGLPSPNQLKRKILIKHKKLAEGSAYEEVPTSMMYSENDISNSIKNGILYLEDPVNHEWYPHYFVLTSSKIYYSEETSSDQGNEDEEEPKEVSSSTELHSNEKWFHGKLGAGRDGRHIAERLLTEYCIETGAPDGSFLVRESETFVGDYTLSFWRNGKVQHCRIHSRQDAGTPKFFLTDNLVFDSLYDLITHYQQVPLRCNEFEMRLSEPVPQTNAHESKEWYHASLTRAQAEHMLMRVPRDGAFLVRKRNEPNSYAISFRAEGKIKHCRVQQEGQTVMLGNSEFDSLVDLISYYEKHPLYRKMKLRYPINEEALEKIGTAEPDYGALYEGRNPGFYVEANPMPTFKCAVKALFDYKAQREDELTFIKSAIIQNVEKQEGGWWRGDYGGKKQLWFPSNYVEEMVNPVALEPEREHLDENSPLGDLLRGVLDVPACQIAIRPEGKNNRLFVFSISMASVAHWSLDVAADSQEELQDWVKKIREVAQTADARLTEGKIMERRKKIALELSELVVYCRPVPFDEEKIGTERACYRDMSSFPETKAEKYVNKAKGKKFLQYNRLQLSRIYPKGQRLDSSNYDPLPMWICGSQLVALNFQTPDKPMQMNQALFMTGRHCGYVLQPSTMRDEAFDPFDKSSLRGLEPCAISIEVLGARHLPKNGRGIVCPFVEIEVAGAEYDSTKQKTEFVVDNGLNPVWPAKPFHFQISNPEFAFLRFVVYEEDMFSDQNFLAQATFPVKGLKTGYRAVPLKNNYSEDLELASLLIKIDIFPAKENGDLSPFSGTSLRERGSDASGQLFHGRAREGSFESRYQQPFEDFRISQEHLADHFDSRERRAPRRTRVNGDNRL
# [9] = biological target: Apoptotic protease-activating factor 1 (Homo sapiens, UniProt O14727); experiment: activation of Apaf-1 mediated apoptosis – fluorescent, uHTS hits, dose response (AID 588554); type: functional
# [10] = biological target: T5, Dual specificity protein phosphatase 3 (Homo sapiens, UniProt P51452); experiment: VHR1 phosphatase inhibitors, primary screen, biochemical, absorbance, uHTS (AID 1654)
# T5 sequence (P51452 whole entry): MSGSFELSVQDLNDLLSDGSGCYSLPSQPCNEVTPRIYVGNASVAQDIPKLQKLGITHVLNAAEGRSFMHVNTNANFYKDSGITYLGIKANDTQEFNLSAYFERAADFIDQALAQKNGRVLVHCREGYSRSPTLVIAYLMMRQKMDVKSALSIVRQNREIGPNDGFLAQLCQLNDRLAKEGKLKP
# [11] = biological target: T6, Bifunctional protein GlmU (Mycobacterium tuberculosis, UniProt P9WMN3); experiment: Inhibitors of Mycobacterial Glucosamine-1-phosphate acetyl transferase (GlmU). Secondary screen.; parameters: species or system Mycobacterium tuberculosis H37Rv
# T6 sequence (P9WMN3 whole entry): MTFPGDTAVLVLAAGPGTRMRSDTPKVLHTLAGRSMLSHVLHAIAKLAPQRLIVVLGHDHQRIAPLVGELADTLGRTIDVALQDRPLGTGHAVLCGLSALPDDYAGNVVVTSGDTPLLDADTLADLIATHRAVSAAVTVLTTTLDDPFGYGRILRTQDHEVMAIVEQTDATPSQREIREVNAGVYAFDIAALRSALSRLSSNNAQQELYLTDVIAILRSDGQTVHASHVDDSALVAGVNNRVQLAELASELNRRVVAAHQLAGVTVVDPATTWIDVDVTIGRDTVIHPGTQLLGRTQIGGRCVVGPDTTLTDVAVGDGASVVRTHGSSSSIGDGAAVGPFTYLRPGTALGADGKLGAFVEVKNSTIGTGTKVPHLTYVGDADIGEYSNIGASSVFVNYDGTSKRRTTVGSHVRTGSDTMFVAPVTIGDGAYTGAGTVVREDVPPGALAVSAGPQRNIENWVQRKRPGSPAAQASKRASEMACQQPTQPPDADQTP
# [12] = biological target: T5, Dual specificity protein phosphatase 3; experiment: VHR1 phosphatase inhibitors, biochemical (AID 1878)
# [13] = biological target: T7, Dual specificity protein phosphatase 6 (Rattus norvegicus, UniProt Q64346); experiment: inhibition of rat DUSP6 enzyme activity – biochemical, in vitro, primary screen (AID 425)
# T7 sequence (Q64346 whole entry): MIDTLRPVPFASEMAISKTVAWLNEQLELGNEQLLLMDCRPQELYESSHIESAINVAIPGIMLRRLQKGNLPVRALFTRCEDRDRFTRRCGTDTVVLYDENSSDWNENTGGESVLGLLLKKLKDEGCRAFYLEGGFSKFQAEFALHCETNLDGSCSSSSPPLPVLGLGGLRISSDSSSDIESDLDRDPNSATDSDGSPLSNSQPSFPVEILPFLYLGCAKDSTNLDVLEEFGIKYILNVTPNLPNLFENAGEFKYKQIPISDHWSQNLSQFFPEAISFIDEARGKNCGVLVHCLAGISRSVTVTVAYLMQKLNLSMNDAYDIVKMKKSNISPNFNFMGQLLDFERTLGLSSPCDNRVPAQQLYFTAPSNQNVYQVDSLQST
# [14] = biological target: Induced myeloid leukemia cell differentiation protein Mcl-1 (Homo sapiens, UniProt Q07820); type: functional
# Chain of Induced myeloid leukemia cell differentiation protein Mcl-1 (Q07820 whole entry): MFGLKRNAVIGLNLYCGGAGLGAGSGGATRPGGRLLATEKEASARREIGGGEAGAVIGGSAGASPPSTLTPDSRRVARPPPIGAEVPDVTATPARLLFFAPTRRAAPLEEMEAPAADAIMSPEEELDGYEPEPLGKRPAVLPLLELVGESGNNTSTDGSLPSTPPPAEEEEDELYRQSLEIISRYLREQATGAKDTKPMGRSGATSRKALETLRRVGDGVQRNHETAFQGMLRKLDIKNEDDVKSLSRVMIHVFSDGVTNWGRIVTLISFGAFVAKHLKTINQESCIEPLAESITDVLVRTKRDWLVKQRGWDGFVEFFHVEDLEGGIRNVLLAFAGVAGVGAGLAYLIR
# [15] = biological target: T8, Small ubiquitin-related modifier 1 (Homo sapiens, UniProt P63165); experiment: SUMO1 protein-protein binding blockers, potency – biochemical, FRET, dose response (AID 624383); type: functional; conditions: read-out: IC50_Mean
# T8 sequence (P63165 whole entry): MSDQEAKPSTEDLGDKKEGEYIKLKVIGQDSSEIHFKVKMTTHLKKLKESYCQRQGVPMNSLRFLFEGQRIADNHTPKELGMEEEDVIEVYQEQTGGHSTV
# [16] = biological target: T8, Small ubiquitin-related modifier 1; experiment: SUMO1 protein interaction blockers, potency – biochemical, fluorescence polarization, uHTS hits, dose response (AID 624382); type: functional; conditions: read-out: IC50_Mean
smiles,measurement,setting,value
NC1=C(Br)C(=O)c2ncccc2C1=O,IC50,[1],> 66 µM (inactive)
same,AC50,[2],0.164 µM (active)
same,IC50,[3],> 66 µM (inactive)
same,IC50,[4],2.66 µM (active)
same,IC50,Hexokinase HKDC1,8.91 µM (active)
same,AC50,[5],10.1 µM (active)
same,IC50,[6],2.48 µM (active)
same,AC50,Paired box protein Pax-8,1.22 µM (active)
O=c1c(CO)cc(CO)cc(CO)c1O,AC50,Caspase-6,2.22 µM (active)
same,AC50,Caspase-7,> 70 µM (inactive)
same,IC50,Albumin,> 94 µM (inactive)
O=C(O)c1cccc(-c2ccc(/C=c3/sc4nc5ccccc5n4c3=O)o2)c1,IC50,[7],> 122 µM (inactive)
same,IC50,[8],> 122 µM (inactive)
same,EC50,[9],9.48 µM (active)
same,IC50,[10],4.98 µM (active)
same,IC50,[11],101 µM (active)
same,IC50,[12],2.27 µM (active)
same,IC50,[13],118 µM (not active)
same,IC50,[14],1.74 µM (active)
same,IC50,[15],8.7 µM (active)
same,IC50,[16],> 66.6 µM (inactive)
